Reference: patent US12642798B2, “Aripiprazole prodrug composition” (ALKERMES PHARMA IRELAND LIMITED, priority 2014, dated 2026)

Assay: Particle size analysis by laser light scattering (Horiba)
Format: physicochemical
Conditions: solid particulate form prior to milling
Excerpt: The term “particle size” or “volume based particle size” or “volume based particle size distribution” as used herein is equivalent to and also referred to as the Dv50 or D50 and means that at least about 50% of the aripiprazole prodrug particles have a diameter of less than the size specified. The aforementioned terms are used interchangeably herein. For example a volume based particle size (Dv50) of less than 1000 nm, means that 50% of the particle population has a diameter of less than 1000 nm when measured by static or dynamic light scattering techniques known to those skilled in the art. […] Unless otherwise specified, all particle sizes are specified in terms of volume based measurements and are measured by laser light scattering/diffraction. Particle sizes are then determined based on Mie scattering theory. More specifically, unless otherwise specified, volume based particle size (Dv50) is determined using a Horiba LA-950 standard model laser particle size analyser. Deionized water or water with a small quantity (for example 0.1% w/w) of surface stabilizer (for example polysorbate 20) is used as the sizing medium unless otherwise specified. […]
The particle size of the present composition may be measured using techniques such as light scattering with either water or a dilute surface stabilizer solution as the diluent. […]

| SMILES | particle size (Dv50) prior to milling |
| --- | --- |
| CCCCCC(=O)OCN1C(=O)CCc2ccc(OCCCCN3CCN(c4cccc(Cl)c4Cl)CC3)cc21 [aripiprazole cavoxil, (7-(4-(4-(2,3-Dichlorophenyl)piperazin-1-yl)butoxy)-2-oxo-3,4-dihydroquinolin-1(2H)yl)methyl hexanoate] | greater than 8 microns |
| CCCCCCCCCCCC(=O)OCN1C(=O)CCc2ccc(OCCCCN3CCN(c4cccc(Cl)c4Cl)CC3)cc21 [aripiprazole lauroxil, Dodecanoic acid, [7-[4-[4-(2,3-dichlorophenyl)-1-piperazinyl]butoxy]-3,4-dihydro-2-oxo-1(2H)-quinolinyl]methyl ester] | greater than 10 microns |
